Measurements: ChEMBL document CHEMBL1130564, “The dipeptide neurokinin-1 receptor antagonist S19752 is a potent and long-acting inhibitor of bronchoconstriction when administered by aerosol to the guinea pig in vivo” (Bioorg Med Chem Lett, 1997)

Assays:
Substance-K receptor [1] = molecular target: T1, Substance-K receptor (Oryctolagus cuniculus, UniProt P79218); experiment: […] for NK-2 receptor was determined in vitro using isolated rabbit pulmonary artery.
T1 sequence (P79218 whole entry): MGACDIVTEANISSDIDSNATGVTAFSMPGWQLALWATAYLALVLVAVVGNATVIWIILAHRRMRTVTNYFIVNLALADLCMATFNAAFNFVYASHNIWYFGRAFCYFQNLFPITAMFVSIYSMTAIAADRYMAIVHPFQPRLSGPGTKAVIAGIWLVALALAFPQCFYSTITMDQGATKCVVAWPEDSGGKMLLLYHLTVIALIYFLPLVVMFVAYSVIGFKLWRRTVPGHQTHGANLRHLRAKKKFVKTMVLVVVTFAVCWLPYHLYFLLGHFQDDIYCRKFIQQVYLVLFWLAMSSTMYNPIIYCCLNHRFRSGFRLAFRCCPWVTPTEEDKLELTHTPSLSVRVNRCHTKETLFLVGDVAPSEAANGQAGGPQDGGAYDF

Substance-K receptor [2] = molecular target: T2, Substance-K receptor (Homo sapiens, UniProt P21452); experiment: Binding affinity for NK-2 receptor was determined in a radioligand binding assay using chinese hamster ovary cells.; assay type: cell-based
T2 sequence (P21452 whole entry): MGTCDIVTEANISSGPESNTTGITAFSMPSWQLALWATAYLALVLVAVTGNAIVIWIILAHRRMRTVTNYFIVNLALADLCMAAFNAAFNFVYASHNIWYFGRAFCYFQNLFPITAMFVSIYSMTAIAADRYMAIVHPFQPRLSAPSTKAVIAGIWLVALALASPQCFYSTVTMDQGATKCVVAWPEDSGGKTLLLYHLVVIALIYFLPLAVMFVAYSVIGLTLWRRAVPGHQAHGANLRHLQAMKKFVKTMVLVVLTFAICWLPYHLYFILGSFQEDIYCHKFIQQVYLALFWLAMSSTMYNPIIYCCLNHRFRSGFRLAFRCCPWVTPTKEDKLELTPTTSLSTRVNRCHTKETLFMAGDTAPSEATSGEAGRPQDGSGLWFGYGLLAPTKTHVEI

Neuromedin-K receptor [3] = molecular target: T3, Neuromedin-K receptor (Rattus norvegicus, UniProt P16177); experiment: […] for NK-3 receptor was determined in vitro using isolated rat portal vein.
T3 sequence (P16177 whole entry): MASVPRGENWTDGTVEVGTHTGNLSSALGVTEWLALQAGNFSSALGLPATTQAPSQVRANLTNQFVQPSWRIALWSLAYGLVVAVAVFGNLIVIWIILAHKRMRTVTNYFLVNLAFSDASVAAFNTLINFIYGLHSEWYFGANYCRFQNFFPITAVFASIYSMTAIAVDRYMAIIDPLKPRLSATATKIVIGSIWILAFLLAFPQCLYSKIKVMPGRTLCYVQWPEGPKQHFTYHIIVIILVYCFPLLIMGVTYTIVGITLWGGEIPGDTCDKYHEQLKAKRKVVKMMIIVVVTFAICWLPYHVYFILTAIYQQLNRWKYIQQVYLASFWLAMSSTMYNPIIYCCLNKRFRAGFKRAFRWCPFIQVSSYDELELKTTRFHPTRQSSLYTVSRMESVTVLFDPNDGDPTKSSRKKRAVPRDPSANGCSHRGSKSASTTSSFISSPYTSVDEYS

Cavia porcellus [4] = experiment: Tested for the ability to inhibit substance P induced bronchoconstriction, in guinea pig, after intravenous administration. The inhibitory dose at 3 minutes, was reported.; assay type: functional; conditions: 0.05 h, read-out: ID50 (the source's name)
Substance-P receptor = Substance-P receptor (Homo sapiens, UniProt P25103); experiment: Binding affinity for NK-1 receptor was determined in a radioligand binding assay using IM9 human lymphoblastoma cell line.
Substance-P receptor, sequence (P25103 whole entry): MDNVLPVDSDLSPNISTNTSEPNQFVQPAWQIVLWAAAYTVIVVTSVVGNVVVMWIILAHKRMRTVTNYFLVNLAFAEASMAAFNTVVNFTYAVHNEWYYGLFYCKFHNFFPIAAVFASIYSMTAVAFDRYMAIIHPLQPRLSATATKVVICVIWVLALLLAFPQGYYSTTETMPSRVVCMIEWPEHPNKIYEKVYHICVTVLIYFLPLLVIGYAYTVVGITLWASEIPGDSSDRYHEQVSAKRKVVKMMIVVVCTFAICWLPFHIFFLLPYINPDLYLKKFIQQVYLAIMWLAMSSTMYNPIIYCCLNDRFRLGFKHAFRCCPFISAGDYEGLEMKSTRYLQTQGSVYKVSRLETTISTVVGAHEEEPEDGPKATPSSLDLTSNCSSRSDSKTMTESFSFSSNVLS

Cavia porcellus [5] = experiment: Tested for the ability to inhibit substance P induced bronchoconstriction in guinea pig and the dose that was effective even after 40 minutes of compound administration, was reported.; assay type: functional
Cavia porcellus [6] = species on record: Cavia porcellus; experiment: Inhibition of capsaicin-induced plasma extravasation in guinea pig bronchi; assay type: functional
Neuromedin-K receptor [7] = molecular target: T3, Neuromedin-K receptor; experiment: Antagonistic potency for NK-3 receptor was determined in vitro, using isolated rat portal vein.; assay type: functional; conditions: read-out: pA2 (converted)
Substance-K receptor [8] = molecular target: T1, Substance-K receptor; experiment: Antagonistic potency for NK-2 receptor was determined in vitro, using isolated rabbit pulmonary artery.; assay type: functional; conditions: read-out: pA2 (converted)

Compound `CN(Cc1ccccc1)C(=O)[C@H](Cc1ccc2ccccc2c1)NC(=O)[C@H]1C[C@H](O)CN1C(=O)c1cn(CCCCc2nnn[nH]2)c2ccccc12` has a pA2 (Substance-K receptor [1]) of 5.6, a Ki (Substance-K receptor [2]) of 2.4 µM and a pA2 (Neuromedin-K receptor [3]) of 5.

Work on `O=C(OCc1cc(C(F)(F)F)cc(C(F)(F)F)c1)[C@H](Cc1c[nH]c2ccccc12)NC(=O)[C@H]1C[C@H](O)CN1C(=O)c1cn(CCCCc2nnn[n-]2)c2ccccc12.[K+]` yielded a pA2 (Substance-K receptor [1]) of 5.2, an ED50 (Cavia porcellus [4]) of 0.05 µmol/kg and a Ki (Substance-K receptor [2]) of 4.2 µM. The Ki (Substance-P receptor) was 0.0024 µM, the Effective dose (Cavia porcellus [5]) was 0.5 mM and the pA2 (Neuromedin-K receptor [3]) was 5.5. The Effective dose (Cavia porcellus [6]) was 0.026 mg/kg.

With `COc1ccccc1CN[C@H]1CCCN[C@H]1c1ccccc1` [CP-99994] the Kb (Neuromedin-K receptor [7]) was greater than 100 µM, the Kb (Substance-K receptor [8]) was greater than 100 µM and the ED50 (Cavia porcellus [6]; read-out: ID50 (the source's name)) was 0.014 mg/kg.

For `CC(=O)N[C@@H](Cc1c[nH]c2ccccc12)C(=O)OCc1cc(C(F)(F)F)cc(C(F)(F)F)c1` [L-732138], the Kb (Neuromedin-K receptor [7]) was 6.31 µM and the Kb (Substance-K receptor [8]) was 6.31 µM.
